Source: patent US8618107B2 (Gilead Connecticut, Inc., priority 2010, dated 2013)

The compounds below were run against Btk (Homo sapiens (Human), UniProt Q06187) (assay: standard biochemical Btk Kinase Assay (Example 901)). Conditions: Table 1.
Chain of Btk (Q06187 whole entry): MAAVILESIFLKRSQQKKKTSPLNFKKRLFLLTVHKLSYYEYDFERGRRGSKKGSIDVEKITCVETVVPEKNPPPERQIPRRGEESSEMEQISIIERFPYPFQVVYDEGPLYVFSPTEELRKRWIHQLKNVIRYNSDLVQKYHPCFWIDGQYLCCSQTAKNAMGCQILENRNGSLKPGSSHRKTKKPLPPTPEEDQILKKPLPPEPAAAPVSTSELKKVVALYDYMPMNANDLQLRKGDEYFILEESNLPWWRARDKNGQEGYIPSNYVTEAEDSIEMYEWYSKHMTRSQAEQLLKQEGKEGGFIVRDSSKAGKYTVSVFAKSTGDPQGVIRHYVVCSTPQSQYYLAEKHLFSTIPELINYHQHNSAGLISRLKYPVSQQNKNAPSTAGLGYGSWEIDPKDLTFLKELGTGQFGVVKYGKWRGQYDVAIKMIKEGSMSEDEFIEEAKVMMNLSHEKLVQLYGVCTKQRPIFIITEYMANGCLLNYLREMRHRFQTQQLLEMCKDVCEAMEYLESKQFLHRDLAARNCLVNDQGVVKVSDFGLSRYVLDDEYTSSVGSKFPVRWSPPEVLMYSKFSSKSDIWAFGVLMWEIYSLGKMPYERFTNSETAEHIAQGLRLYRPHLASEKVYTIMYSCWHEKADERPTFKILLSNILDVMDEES
Excerpt: Determination of IC50 values can be accomplished using conventional techniques known in the art. In general, an IC50 can be determined by measuring the activity of a given enzyme in the presence of a range of concentrations of the inhibitor under study. The experimentally obtained values of enzyme activity then are plotted against the inhibitor concentrations used. […] Analogously, other inhibitory concentrations can be defined through appropriate determinations of activity.

| IC50 [nM] | Structure (SMILES) |
| --- | --- |
| 1 | Cn1cc(-c2cccc(N3CCn4c(cc5c4CCCC5)C3=O)c2CO)cc(Nc2cc(C3CC3)[nH]n2)c1=O [Example 106, 2-(3-(5-(5-cyclopropyl-1H-pyrazol-3-ylamino)-1-methyl-6-oxo-1,6-dihydropyridin-3-yl)-2-(hydroxymethyl)phenyl)-3,4,6,7,8,9-hexahydropyrazino[1,2-a]indol-1(2H)-one] |

Same assay, conditions: Table 2

| Structure (SMILES) | IC50 [nM] |
| --- | --- |
| CN1CC(c2ccc(Nc3cc(-c4cc(F)cc(N5CCn6c(cc7c6CC(C)(C)C7)C5=O)c4CO)cn(C)c3=O)nc2)C1 [Example 271, 10-[5-Fluoro-2-(hydroxymethyl)-3-(1-methyl-5-{[5-(1-methylazetidin-3-yl)pyridine-2-yl]amino}-6-oxo-1,6-dihydropyridin-3-yl)phenyl]-4,4-dimethyl-1,10-diazatricyclo[6.4.0.0^2,6]dodeca-2(6),7-dien-9-one] | 4.7 |
| Cn1cc(-c2cccc(N3CCc4c(sc5c4CCCC5)C3=O)c2CO)nc(Nc2ccc(C3CCN(C4COC4)CC3)cc2)c1=O [Example 305, 5-[2-(Hydroxymethyl)-3-[4-methyl-6-({4-[1-(oxetan-3-yl)piperidin-4-yl]phenyl}amino)-5-oxo-4,5-dihydropyrazin-2-yl]phenyl]-8-thia-5-azatricyclo[7.4.0.0^2,7]trideca-1(9),2(7)-dien-6-one] | 17.1 |
| CN1CCC(c2ccc(Nc3nc(-c4cc(F)cc(N5CCn6c(cc7c6CCCC7)C5=O)c4CO)cn(C)c3=O)cc2)CC1 [Example 282, 2-(5-Fluoro-2-(hydroxymethyl)-3-(4-methyl-6-(4-(1-methylpiperidin-4-yl)phenylamino)-5-oxo-4,5-dihydropyrazin-2-yl)phenyl)-3,4,6,7,8,9-hexahydropyrazino[1,2-a]indol-1(2H)-one] | 4 |

Further lines, results first:

| IC50 [nM] | Structure (SMILES) |
| --- | --- |
| 2.8 | Cn1cc(-c2cc(F)cc(N3CCn4c(cc5c4CCCC5)C3=O)c2CO)cc(Nc2ccc(C3CCN(C4COC4)CC3)cn2)c1=O [Example 265, 2-(5-Fluoro-2-(hydroxymethyl)-3-(1-methyl-5-(5-(1-(oxetan-3-yl)piperidin-4-yl)pyridin-2-ylamino)-6-oxo-1,6-dihydropyridin-3-yl)phenyl)-3,4,6,7,8,9-hexahydropyrazino[1,2-a]indol-1(2H)-one] |
| 9.8 | CN1CC(Oc2ccc(Nc3cc(-c4cc(F)cc(N5CCn6c(cc7c6CCCC7)C5=O)c4CO)cn(C)c3=O)nc2)C1 [Example 293, 2-(5-Fluoro-2-(hydroxymethyl)-3-(1-methyl-5-(5-(1-methylazetidin-3-yloxy)pyridin-2-ylamino)-6-oxo-1,6-dihydropyridin-3-yl)phenyl)-3,4,6,7,8,9-hexahydropyrazino[1,2-a]indol-1(2H)-one] |

The compounds below were run on CD86 surface expression on CD19+/7AAD- mouse splenocytes stimulated with IgM (assay: CD86 Inhibition Assay). Conditions: Splenocyte; total mouse splenocytes (Balb/c), IgM stimulation 24 hr.
Format: cell-based
Description: Following the 24 hr incubation, cells are transferred to conical bottom clear 96-well plates and pelleted by centrifugation at 1200×g×5 min. […] Cells are sorted on a BD FACSCalibur and gated on the CD19^+/7AAD^− population. The levels of CD86 surface expression on the gated population is measured versus test compound concentration.

| Structure (SMILES) | EC50 [nM] |
| --- | --- |
| Cn1cc(-c2cc(F)cc(N3CCc4c(sc5c4CCCC5)C3=O)c2CO)cc(Nc2ccncn2)c1=O [Example 115, 5-[5-Fluoro-2-(hydroxymethyl)-3-[1-methyl-6-oxo-5-(pyrimidin-4-ylamino)-1,6-dihydropyridin-3-yl]phenyl]-8-thia-5-azatricyclo[7.4.0.02,7]trideca-1(9),2(7)-dien-6-one] | 78 |
| CN(C)CCOc1ccc(Nc2cc(-c3cc(F)cc(N4CCc5c(sc6c5CC(C)(C)C6)C4=O)c3CO)cn(C)c2=O)nc1 [Example 296, 10-{3-[5-({5-[2-(Dimethylamino)ethoxy]pyridin-2-yl}amino)-1-methyl-6-oxo-1,6-dihydropyridin-3-yl]-5-fluoro-2-(hydroxymethyl)phenyl}-4,4-dimethyl-7-thia-10-azatricyclo[6.4.0.0^2,6]dodeca-1(8),2(6)-dien-9-one] | 1 |
| Cn1cc(-c2cccc(N3CCn4c(cc5c4CCCC5)C3=O)c2CO)nc(Nc2cnn(C3CC3)c2)c1=O [Example 114, 2-(3-(6-(1-cyclopropyl-1H-pyrazol-4-ylamino)-4-methyl-5-oxo-4,5-dihydropyrazin-2-yl)-2-(hydroxymethyl)phenyl)-3,4,6,7,8,9-hexahydropyrazino[1,2-a]indol-1(2H)-one] | 188 |
| COc1nccc(Nc2cc(-c3cc(F)cc(N4CCn5c(cc6c5CC(C)(C)C6)C4=O)c3CO)cn(C)c2=O)n1 [Example 300] | 9 |
| CN1CCC(c2ccc(Nc3cc(-c4cc(F)cc(N5CCc6c(sc7c6CCCC7)C5=O)c4CO)cn(C)c3=O)nc2)C1 (centres unmarked) [Example 308, 5-[5-Fluoro-2-(Hydroxymethyl)-3-(1-methyl-5-{[5-(1-methylpyrrolidin-3-yl)pyridine-2-yl]amino}-6-oxo-1,6-dihydropyridin-3-yl)phenyl]-8-thia-5-azatricyclo-[7.4.0.0^2,7]trideca-1(9),2(7)-dien-6-one] | 63 |
| Cn1cc(-c2cc(F)cc(N3CCc4c(sc5c4CCCC5)C3=O)c2CO)cc(Nc2ccc(N3CCOCC3)cn2)c1=O [Example 289, 2-(5-Fluoro-2-(hydroxymethyl)-3-(1-methyl-5-(5-morpholinopyridin-2-ylamino)-6-oxo-1,6-dihydropyridin-3-yl)phenyl)-3,4,5,6,7,8-hexahydrobenzothieno[2,3-c]pyridin-1(2H)-one] | 10 |
| CN1CCC[C@H]1c1ccc(Nc2cc(-c3cc(F)cc(N4CCn5c(cc6c5CC(C)(C)C6)C4=O)c3CO)cn(C)c2=O)nc1 [Example 290, 10-[5-Fluoro-2-(hydroxymethyl)-3-[1-methyl-5-({5-[(2S)-1-methylpyrrolidin-2-yl]pyridine-2-yl}amino)-6-oxo-1,6-dihydropyridin-3-yl]phenyl]-4,4-dimethyl-1,10-diazatricyclo[6.4.0.0^2,6]dodeca-2(6),7-dien-9-one] | 10 |

Now from value to compound:

| EC50 [nM] | Structure (SMILES) |
| --- | --- |
| 16 | Cn1cc(-c2cccc(N3CCn4c(cc5c4CCCC5)C3=O)c2CO)cc(Nc2cc3n(n2)CCN(C2COC2)C3)c1=O [Example 319, 2-(2-(Hydroxymethyl)-3-(1-methyl-5-(5-(oxetan-3-yl)-4,5,6,7-tetrahydropyrazolo[1,5-a]pyrazin-2-ylamino)-6-oxo-1,6-dihydropyridin-3-yl)phenyl)-3,4,6,7,8,9-hexahydropyrazino[1,2-a]indol-1(2H)-one] |
| 30 | Cn1cc(-c2cccc(N3CCn4c(cc5c4CC(C)(C)C5)C3=O)c2CO)cc(Nc2ccc(N3CCN(C4COC4)CC3)cn2)c1=O [Example 311, 10-[2-(Hydroxymethyl)-3-[1-methyl-5-({5-[4-(oxetan-3-yl)piperazin-1-yl]pyridine-2-yl}amino)-6-oxo-1,6-dihydropyridin-3-yl]phenyl]-4,4-dimethyl-1,10-diazatricyclo[6.4.0.0^2,6]dodeca-2(6),7-dien-9-one] |
| 10 | Cn1cc(-c2cc(F)cc(N3CCn4c(cc5c4CCCC5)C3=O)c2CO)cc(Nc2ccc(N3CCN(C4COC4)CC3)cn2)c1=O [Example 210, 2-(5-fluoro-2-(hydroxymethyl)-3-(1-methyl-5-(5-(4-(oxetan-3-yl)piperazin-1-yl)pyridin-2-ylamino)-6-oxo-1,6-dihydropyridin-3-yl)phenyl)-3,4,6,7,8,9-hexahydropyrazino[1,2-a]indol-1(2H)-one] |
| 9 | Cn1cc(-c2cc(F)cc(N3CCc4c(sc5c4CCCC5)C3=O)c2CO)cc(Nc2ccc(N3CCN(C4COC4)CC3)cn2)c1=O [Example 211, 5-[5-Fluoro-2-(hydroxymethyl)-3-[1-methyl-5-({5-[4-(oxetan-3-yl)piperazin-1-yl]pyridin-2-yl}amino)-6-oxo-1,6-dihydropyridin-3-yl]phenyl]-8-thia-5-azatricyclo[7.4.0.0^2,7]trideca-1(9),2(7)-dien-6-one] |
